{"source": "patent US20190030018A1", "about": "(Celgene Corporation, priority 2017, published 2019)", "key": {"[1]": {"system": "IDH2 mutant cell line TF1-R140Q", "assay": "Hemoglobinization / EPO induced differentiation assay with flow cytometry", "format": "cell-based", "conditions": "EPO induction 7 days", "experimental": "(§1) Cells were plated at a density of 0.2e^6 cells/ml of 2 ml culture in 6 well plates.\nFIG. 91 provides the dosing schedules used in this study.\n(§2) TF1 cells were cultured in the following media: RPMI containing HEPES and L-glutamine, 10% FBS, Pen/Strep, G418 (final conc 500 μg/ml), and GM-CSF (final conc 5 ng/ml). The cells were cultured for 7 days, with or without compound treatment as described in FIG. 91.\n(§3) For the hemoglobinization assay, TF1 cells were washed three times with PBS to remove residual GM-CSF then plated at (100,000 cells/ml). Cells were then induced to differentiate using EPO (2 unit/ml). Induction continued for 7 days with changing media on 4th day and adding media with fresh EPO. The cell pellets were collected and imaged for hemoglobinization content (as a surrogate for differentiation into blood lineage). Cells were pelleted, washed, stained with a panel of antibodies and analyzed by flow cytometry, using the following antibodies: […]"}, "[2]": {"assay": "Dynamic vapor sorption (DVS) of solid forms", "format": "physicochemical", "conditions": "relative humidity increased from about 0% to about 90% RH", "experimental": "In certain embodiments, Form A is characterized by dynamic vapor sorption analysis. […] In certain embodiments, Form A comprises less than 0.1% water as determined in a coulometric Karl Fischer (KF) titrator equipped with an oven sample processor set at 225° C.\nIn certain embodiments, Form B is characterized by dynamic vapor sorption analysis. […] In certain embodiments, Form B comprises less than 0.1% water as determined in a coulometric Karl Fischer (KF) titrator equipped with an oven sample processor set at 225° C.\nIn certain embodiments, Form C is characterized by dynamic vapor sorption analysis. […] In certain embodiments, Form C comprises less than 0.1% water as determined in a coulometric Karl Fischer (KF) titrator equipped with an oven sample processor set at 225° C."}, "physchem": {"assay": "physchem", "format": "physicochemical", "excerpt": "“Compound 1, Form C” or “Form C” or “API”” in the Examples herein refers to polymorph Form C of 2-(4-chlorophenyl)-N-((2-(2,6-dioxopiperidin-3-yl)-1-oxoisoindolin-5-yl)methyl)-2,2-difluoroacetamide. “Compound 1, Form A” or “Form A” in the Examples herein refers to polymorph Form A of 2-(4-chlorophenyl)-N-((2-(2,6-dioxopiperidin-3-yl)-1-oxoisoindolin-5-yl)methyl)-2,2-difluoroacetamide."}, "[3]": {"system": "JAK2V617F AML cell lines HEL, SET-2, MUTZ-8", "assay": "Combination studies with JAK2 inhibitors in AML cell lines, CellTitre-Glo after 3 days", "format": "cell-based", "procedure": "The cell viability was measured by CellTitre-Glo® after 3 days as described elsewhere herein."}, "[4]": {"conditions": "patients, literature value; read-out: clinical Cmax; cited from earlier work"}, "[5]": {"system": "IL3 independent JAK2 V617F BaF3 cells", "assay": "Combination studies with JAK2 inhibitors in engineered BaF3 cells, CellTitre-Glo after 3 days", "format": "cell-based", "conditions": "compared to the IL3 dependent lines", "experimental": "Everolimus was included as a control. The cell viability was then measured by CellTitre-Glo® after 3 days."}, "AML cell lines": {"system": "AML cell lines", "assay": "In vitro combination studies, CellTitre-Glo cell viability (Bliss, Loewe, HSA, CES synergy analysis)", "conditions": "FLT3 and JAK inhibitors in combination with Compound 1 in MOLM-13 and NOMO-1 cell lines", "procedure": "where EA and EB represent the effect of each single agent and EAB represents the effect of the combination at a given dose.\nAll data was analyzed using the CES equation:\nIn cases where single agent dose response fit a Hill slope, the CES analysis was compared to Loewe, Bliss, and HSA models."}, "[6]": {"system": "IDH2 mutant cell line TF1-R140Q", "assay": "Proliferation (total, HSC and progenitor cell count) in the TF1 assay", "format": "cell-based", "experimental": "as §1, §2, §3"}}, "data": [{"smiles": "Nc1nc(Nc2ccnc(C(F)(F)F)c2)nc(-c2cccc(C(F)(F)F)n2)n1", "note": "[Compound 2, 6-(6-(trifluoromethyl)pyridin-2-yl)-N^2-(2-(trifluoromethyl)pyridin-4-yl)-1,3,5-triazine-2,4-diamine]", "values": [{"measurement": "hemoglobin expression", "setting": "[1]", "result": "increase in hemoglobin expression"}]}, {"smiles": "O=C1CCC(N2Cc3cc(CNC(=O)C(F)(F)c4ccc(Cl)cc4)ccc3C2=O)C(=O)N1", "note": "(stereo not shown) [Form C, 2-(4-chlorophenyl)-N-((2-(2,6-dioxopiperidin-3-yl)-1-oxoisoindolin-5-yl)methyl)-2,2-difluoroacetamide]", "values": [{"measurement": "water uptake (DVS)", "setting": "[2]", "result": "about 0.6 % w/w"}, {"measurement": "thermodynamic stability among the crystal forms", "setting": "physchem", "result": "most thermodynamically stable anhydrate"}]}, {"smiles": "C[C@H](Nc1cc(-c2cnn(C)c2)cc(Nc2cnccn2)n1)c1ccc(F)cc1", "note": "[NS-018]", "values": [{"measurement": "cell viability, single agent", "setting": "[3]", "result": "inhibit cell viability"}, {"measurement": "Cmax", "setting": "[4]", "result": 2570, "unit": "nM"}, {"measurement": "single agent sensitivity", "setting": "[5]", "result": "more sensitive"}, {"measurement": "Synergy", "setting": "AML cell lines", "result": "Yes"}]}, {"smiles": "CC(C)(O)CNc1nc(Nc2ccnc(C(F)(F)F)c2)nc(-c2cccc(C(F)(F)F)n2)n1", "note": "[enasidenib, reference compound]", "values": [{"measurement": "proliferation (total, HSC and progenitor cell count)", "setting": "[6]", "result": "mild growth promoting effect"}, {"measurement": "hemoglobin expression", "setting": "[1]", "result": "increase in hemoglobin expression"}]}, {"smiles": "N#CC[C@H](C1CCCC1)n1cc(-c2ncnc3[nH]ccc23)cn1", "note": "[ruxolitinib]", "values": [{"measurement": "Cmax", "setting": "[4]", "result": "500 to 1000", "unit": "nM"}]}]}
